From PMC4515242, “ESR and X-ray Structure Investigations on the Binding and Mechanism of Inhibition of the Native State of Myeloperoxidase with Low Molecular Weight Fragments” (Applied Magnetic Resonance, 2015) come the findings set out here.

Test [1] concerns the target T1, hMPO (Homo sapiens, UniProt P05164).
T1 construct: purchased Biodesign A31804H
T1 sequence (P05164 49-745): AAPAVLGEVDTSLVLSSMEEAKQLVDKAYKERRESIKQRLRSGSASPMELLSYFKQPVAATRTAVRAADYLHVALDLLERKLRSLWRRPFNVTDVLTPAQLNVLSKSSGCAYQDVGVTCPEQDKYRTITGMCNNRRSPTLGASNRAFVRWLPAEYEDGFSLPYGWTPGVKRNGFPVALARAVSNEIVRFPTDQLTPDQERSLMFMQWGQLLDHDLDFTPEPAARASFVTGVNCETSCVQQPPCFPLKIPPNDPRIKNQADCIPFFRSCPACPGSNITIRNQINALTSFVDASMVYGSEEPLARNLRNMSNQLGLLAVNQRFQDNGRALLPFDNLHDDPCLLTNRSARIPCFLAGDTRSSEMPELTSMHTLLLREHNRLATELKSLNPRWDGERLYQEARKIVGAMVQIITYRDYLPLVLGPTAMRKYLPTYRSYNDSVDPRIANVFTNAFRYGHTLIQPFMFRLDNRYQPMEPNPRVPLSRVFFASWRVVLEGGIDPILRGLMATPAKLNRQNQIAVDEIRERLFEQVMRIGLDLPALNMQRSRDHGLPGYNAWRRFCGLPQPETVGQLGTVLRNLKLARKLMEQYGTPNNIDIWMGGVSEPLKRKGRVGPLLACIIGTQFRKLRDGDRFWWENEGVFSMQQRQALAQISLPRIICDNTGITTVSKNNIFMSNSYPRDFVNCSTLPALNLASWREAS
Nature of the test: Alpha screen assay: inhibition of MPO-initiated nitration of the Apo-A1 peptide ([…]). In kind it is biochemical. To be noted: MPO 11.8 nM, pH 7.4, 45 min RT. On the procedure: In a typical experiment, MPO (11.8 nM final concentration) in 20 mM phosphate buffer pH 7.4, 10 % glycerol and 0.005 % gelatin (PB) is added to each well of a multi-well plate containing 20 μl PB ± compound (final concentration of DMSO = 0.9 %). The reaction is started by the addition of 20 μl PB containing 1.5 μM ApoAI peptide substrate, 300 μM diethylenetriaminepentaacetic acid (DTPA), 300 μM sodium nitrite, and 30 μM H2O2. The total reaction volume is 60 μl. The plates are incubated with agitation for 45 min at RT. The reaction is terminated with the addition of 20 μl of a stop solution containing 11.2 nM rabbit anti-nitrotyrosine antibody (final conc. of 2.8 nM), 100 μg/ml streptavidin donor beads, and 100 μg/ml protein A acceptor beads (final concentration of […]), FBS (1.6 % final concentration) in Superblock buffer. The plates are sealed, incubated in the dark for 1 h, and read on a Packard Fusion alpha plate reader.
Through a chloride independent pathway, MPO catalyzes the one electron oxidation of nitrite ions to nitrogen dioxide radicals which then […] protein amino acids like Tyrosine. We used the Apo-A1 peptide substrate ([…]) to follow the nitration of the Tyrosine (indicated by Y in the scheme below): MPO+H2O2→Compound INO2-+Compound I→NO2·+Compound II [drawing 1] Our initial experiments focused on identifying inhibitors that bind to the heme to inhibit the above catalytic action. A representative set of inhibitors is collected in Fig. 1a (strong binders, vide infra) and b (non binders, vide infra).

The target in test [2] is T2, Human Myeloperoxidase (Homo sapiens, UniProt P05164).
T2 construct: purchased Lee Biosciences 426-10
T2 sequence (P05164 49-745): T1 sequence (P05164 49-745)
Put plainly: X-ray co-crystal growth by soaking MPO crystals with inhibitor. To be noted: crystals soaked with 50 mM inhibitor. On the procedure: Human Myeloperoxidase and co-crystals of MPO were crystallized and analyzed using methods similar to those described by Davey and Fenna. Briefly, hanging drops of 25 mg/mL MPO, 25 mM sodium acetate pH 5.0, 50 mM NaCl, 50 mM ammonium sulfate, 2 mM calcium chloride, and 3-10 % polyethylene glycol 8000 were set up at 21 °C over reservoir solutions containing 300 mM sodium chloride. Crystals of the space group P21 and having two MPO subunits per asymmetric unit grew with the aid of micro-seeding as very thin plates having a brownish orange tinge. Crystals were soaked with inhibitor compounds at a concentration of 50 mM, in a stabilizing buffer containing 18 % polyethylene glycol 8000, 56 mM ammonium sulfate, 2.2 mM calcium acetate, and 56 mM HEPES pH 7.0. Co-crystals were cryo-protected in a stabilizing buffer containing 22.2 % methylpentanediol prior to flash cooling in liquid nitrogen.
Diffraction data were collected at 100 K using Synchrotron beam line 31ID at the Advanced Photon Source (Argonne National Laboratory) and were integrated using MOSFLM v.6.2.6 [18]. […] Inhibitor binding to the MPO heme group was indicated by appropriately shaped peaks in the Fo–Fc electron density maps. The inhibitor was included in the model, and iterative cycles of manual model building with COOT [20] and restrained refinement with REFMAC v5.2.0019 [21] were used to complete the overall structure. Figures of the crystal structure were generated using PYMOL (www.pymol.org). […] The higher B-factors for the inhibitor molecules could be attributed to inhibitor occupancies of less than 1.0 or to higher degrees of thermal motion associated with the inhibitors. Lower than expected electron density peak heights were also observed for the Cl atom in the inhibitors, which could be due to the radiation damage to this X-Ray sensitive group.

A short description of test [3]: ABTS radical cation decolorization assay to measure the antioxidant capacity. To be noted: % inhibition at 20 uM single dose, read at 734 nm after 30 min. The method, then:
The assay was modeled after the published procedure. Briefly, ABTS radical cation was prepared by adding 100 μl of 70 mM K2S2O8 to 10 ml ABTS, followed by vortexing and incubating at 37 °C water bath for 2 h. […] Trolox standards are dissolved in water. The reaction is started by adding the ABTS radical cation solution to the MPO inhibitors or Trolox (final concentration 20 μM). The plate is gently shaken for 1 min and then set on a bench top at room temperature for 30 min.

`O=C(O)c1nn(-c2ccccc2)cc1O` [LSN17948] returned an IC50 in test [1] of 520 nM. For the same molecule, the “X ray Cocrystal result” value in test [2] is listed as “Yes”. Moreover, in test [3], the “% Anti oxidant potential” value was 42.1%.

In the case of `O=C(O)c1n[nH]c(-c2ccccc2)c1O` [LSN87637], in test [1], the midpoint of inhibition, the IC50, lay at 674 nM. Moreover, the “X ray Cocrystal result” value in test [2] is “Yes”. Besides, the “% Anti oxidant potential” value in test [3] worked out at 65.9%.

As for `O=C(O)c1nn(-c2cccc3ccccc23)cc1O` [LSN2944556], the midpoint of inhibition in test [1], the IC50, lay at 669 nM. Further, in test [2], the “X ray Cocrystal result” value is “Yes”. Further, the “% Anti oxidant potential” value in test [3] is 67.6%.
